This note sets out measurements from ChEMBL document CHEMBL2331345, “Syntheses of lipophilic chalcones and their conformationally restricted analogues as antitubercular agents” (Bioorg Med Chem Lett, 2013).

≈ marks a conversion by molar mass, not a printed value. Calls of active or inactive are those of the source. The calls are words filed in the database; no cut-off is given here.

One assay deals with HEK293. Kind of assay: Cytotoxicity against human HEK293 cells assessed as inhibition of cell viability after 24 hrs by MTT assay. Type of assay: cell-based. To be noted: HEK293, 24 h. For orientation: Tetrazolium assays rely on reduction of a dye to a coloured formazan, in cell work by metabolically active cells.
Assay [1] concerns Mycobacterium tuberculosis. The experiment in a line: Antitubercular activity against Mycobacterium tuberculosis H37Rv ATCC 27294 assessed as growth inhibition measured every 24 hrs by BACTEC radiosusceptibility assay. The conditions noted are these: H37Rv ATCC 27294, 24 h. Type of assay: functional.
Assay [2] relates to Mycobacterium tuberculosis. Kind of assay: Antitubercular activity against Mycobacterium tuberculosis assessed as growth inhibition. Type of assay: functional.
Assay [3] relates to Mycobacterium tuberculosis. Kind of assay: Antitubercular activity against Mycobacterium tuberculosis H37Rv ATCC 27294 assessed as growth inhibition at 250 ug/ml measured every 24 hrs by BACTEC radiosusceptibility assay. Type of assay: functional, organism-based.
Assay [4] can be described thus: Selectivity ratio of IC50 for human HEK293 cells to MIC for Mycobacterium tuberculosis H37Rv ATCC 27294. Type of assay: functional.
The subject of a further assay is Mycobacterium sp. The experiment in a line: Antibacterial activity against Mycobacterium sp. assessed as growth inhibition. It counts as functional.

For `COc1ccc(/C=C/c2c(-c3ccccc3)c(=O)oc3cc(O)ccc23)cc1`, the IC50 with HEK293 is greater than 250 µg/mL. In addition, the MIC in assay [1] came out at 125 µg/mL (≈ 337 µM).

`COc1ccc2ccc(=O)oc2c1CC=C(C)C` [OSTHOLE]: in assay [2], the MIC is 32 µg/mL (≈ 131 µM).

Take `CC(C)=CCOc1c2ccoc2cc2oc(=O)ccc12` [ISOIMPERATORIN]: the MIC in assay [2] was found to be 64 µg/mL (≈ 237 µM).

Consider `COc1ccc2c(/C=C/c3ccc(OCCN4CCCC4)cc3)c(-c3ccccc3)c(=O)oc2c1`, for which the “growth inhibition (GI)” value in assay [3] was “inactive”.

Turning to `C=CC(C)(C)c1cc(/C=C/C(=O)c2ccc(O)cc2)c(OC)cc1O` [LICOAGROCHACONE A], the MIC in assay [2] turned out to be 7.1 µg/mL (≈ 21 µM).

As to `COc1ccc(C(=O)/C(=C/c2ccc(OCC(=O)O)cc2)c2ccccc2)cc1`, the MIC in assay [1] worked out at 250 µg/mL (≈ 644 µM).

On to `COc1ccc2c(/C=C/c3ccc(OCCN4CCCCC4)cc3)c(-c3ccccc3)c(=O)oc2c1`, for which the IC50 with HEK293 came to 5 µg/mL (≈ 10.4 µM). In assay [1], the MIC stood at 3.5 µg/mL (≈ 7.27 µM). Besides, the Ratio in assay [4] came out at 2.85.

In the case of `COc1cc(CCc2ccc3c(c2)OCO3)oc(=O)c1`, the MIC in assay [2] was 32 µg/mL (≈ 117 µM).

Turning to `CCCCNC(=O)COc1ccc(/C=C(/C(=O)c2ccc(OC)cc2)c2ccccc2)cc1`, in assay [3], the “growth inhibition (GI)” value is “inactive”.

As to `CCCCN(C)C(=O)COc1ccc(/C=C(/C(=O)c2ccc(OC)cc2)c2ccccc2)cc1`, in assay [3], the “growth inhibition (GI)” value was “inactive”.

On to `CC(C)=CCC/C(C)=C/CC/C(C)=C/Cc1c(O)c2ccccc2oc1=O`, for which, in the assay with Mycobacterium sp., the MIC stood at 2 µg/mL (≈ 5.46 µM).

Take `COc1ccc2c(/C=C/c3ccc(O)cc3)c(-c3ccccc3)c(=O)oc2c1`: in the assay with HEK293, the IC50 is greater than 250 µg/mL. Further, the MIC in assay [1] is 30 µg/mL (≈ 81 µM). Further, the Ratio in assay [4] is given as 16.

On to `COc1cc(/C=C/c2ccccc2)oc(=O)c1` [DESMETHOXYYANGONIN], for which, in assay [2], the MIC is 4 µg/mL (≈ 17.5 µM).

As for `COc1cc2oc(=O)ccc2cc1CC=C(C)C` [SUBEROSIN], in assay [2], the MIC came out at 16 µg/mL (≈ 65.5 µM).

With `COc1ccc2c(/C=C/c3ccc(OC(C)CN(C)C)cc3)c(-c3ccccc3)c(=O)oc2c1` (stereo not drawn), in the assay with HEK293, the IC50 was determined as 5 µg/mL (≈ 11 µM). In addition, the MIC in assay [1] is 7.5 µg/mL (≈ 16.5 µM).

Regarding `CN[C@@H]1[C@H](O[C@H]2[C@H](O[C@H]3[C@H](O)[C@@H](O)[C@H](N=C(N)N)[C@@H](O)[C@@H]3N=C(N)N)O[C@@H](C)[C@]2(O)C=O)O[C@@H](CO)[C@H](O)[C@H]1O` [STREPTOMYCIN], the MIC in assay [1] was 2 µg/mL (≈ 3.44 µM).

Consider `COc1ccc2c(/C=C/c3ccc(OC(C)=O)cc3)c(-c3ccccc3)c(=O)oc2c1`, for which the “growth inhibition (GI)” value in assay [3] was “inactive”.

For `COc1ccc(C(=O)/C=C/c2ccc(O)cc2)c(O)c1`, in assay [3], the “growth inhibition (GI)” value is “inactive”.

As for `COc1ccc(/C=C/C(=O)c2ccc(O)cc2O)cc1`, in assay [3], the “growth inhibition (GI)” value is “inactive”.

`CO[C@H]1/C=C/O[C@@]2(C)Oc3c(C)c(O)c4c(O)c(c(/C=N/N5CCN(C)CC5)c(O)c4c3C2=O)NC(=O)/C(C)=C\C=C\[C@H](C)[C@H](O)[C@@H](C)[C@@H](O)[C@@H](C)[C@H](OC(C)=O)[C@@H]1C` [RIFAMPIN]: in assay [1], the MIC stood at 2 µg/mL (≈ 2.43 µM).

As to `COc1ccc(C(=O)/C(=C/c2ccc(O)cc2)c2ccccc2)cc1`, the IC50 in the assay on HEK293 was 50 µg/mL (≈ 151 µM). For the same compound, the MIC in assay [1] is 60 µg/mL (≈ 182 µM).

The term IC50 denotes the concentration at which inhibition is half-maximal. What is called MIC is the lowest concentration that inhibits growth of the organism.
